pIC50: −log10 of the molar value.
Assays:
[1] = biological target: unphosphorylated PDGFRβ kinase (uPDGFRβ, Seq. ID No. 3) (Homo sapiens (Human), UniProt P09619); experiment: Unphosphorylated PDGFRβ kinase assay (coupled pyruvate kinase/lactate dehydrogenase); assay type: biochemical; settings: enzymatic assay, ATP 500 μM
Procedure, shortened: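 Construct residues 557-1106, unphosphorylated, 15.7 nM, with poly E4Y 2.5 mg/mL and 500 μM ATP, Tris pH 7.5, 1% DMSO, 30 °C. ADP coupled to NADH oxidation via PK/LDH, A340 followed 4 h; rate from 1.5-2.5 h versus no-compound control, IC50 from percent-inhibition series.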

cMET kinase = cMET kinase (Homo sapiens (Human), UniProt P08581); experiment: cMET kinase inhibition (Table 4); assay type: biochemical
KDR kinase = KDR kinase (Homo sapiens (Human), UniProt P35968); experiment: KDR kinase inhibition (Table 4); assay type: biochemical
c-FMS = experiment: cFOS mRNA production in a c-FMS mouse spleen pharmacodynamic model; assay type: in vivo; settings: out to 8 h post 30 mg/kg dose, single oral dose
Experimental: Analysis of cFOS mRNA Production in a c-FMS Mouse Spleen Pharmacodynamic Model
To examine the in vivo modulation of FMS activity by compounds of formula I, spleen samples from female DBA/1 mice were collected and analyzed for M-CSF stimulated production of cFOS mRNA. Briefly, six to seven week old female Taconic DBA/1BO J Bom Tac mice were treated with a single oral dose (by gavage) of either vehicle or compound. Plasma and spleen samples were collected from four mice at each timepoint 2, 4, 6, 8, 12, 18, and 24 hours after dosing. Fifteen minutes prior to euthanasia, all mice were injected IV with 1 μg (100 μL fixed volume) of M-CSF. M-CSF, Recombinant Mouse Macrophage Colony Stimulating Factor (36.4 kDa homodimer, ≧98% purity) was obtained from Gibco. All procedures carried out in this experiment were conducted in compliance with all the laws, regulations and guidelines of the National Institutes of Health (NIH). cFOS mRNA levels in spleen extracts were determined using a quantitative reverse transcriptase PCR kit from Life Technologies. Plasma levels of FMS inhibitors were determined by mass spectrometer analysis. The degree of FMS inhibition was correlative to the amount of decrease observed in cFOS mRNA levels in the spleen samples of treated animals compared to vehicle.

PC-3 M-luc cells = experiment: PC-3 peritibial implant model of cancer bone metastasis; assay type: in vivo, mouse; settings: oral dose of 30 mg/kg twice daily; lesion score of 4 in vehicle-treated animals; scale 0-4
Source text: PC-3 Peritibial Implant Model of Cancer Bone Metastasis
To evaluate in vivo anti-cancer activity of compounds of formula I, the PC-3 M-luc peritibial injection model of bone invasiveness model was employed. Briefly, PC-3 M-luc cells were obtained from Xenogen Corporation (Caliper Life Sciences) and expanded using MEM media modified with L-Glutamine (Cell Gro® #10-045-CV) supplemented with 10% fetal bovine serum, 1% penicillin-streptomycin-glutamine, 1% non-essential amino acids, and 1% MEM vitamins in 5% CO2 atmosphere at 37° C. Six to 7 week old male nude mice (Crl:NU-Foxn1nu) were obtained from Charles River Laboratories. Test mice were implanted peritibially on Day 0 with 1×10^6 cells/mouse (0.1 ml) using an insulin syringe with a fixed 28-gauge needle. The needle was inserted at the ankle between the tibia and fibula until the bevel of the needle reached approximately half way between the knee and ankle. Treatments began on Day 0. Animals were dosed by oral gavage twice daily for the study duration. […]
Isosurface volume renderings were used to delineate lesions in the hind limbs. […] Lesions in the right hind limb were scored with values of 0, 1, 2, 3, or 4 based on a qualitative assessment of lesion size as defined by: • 0: Normal Bone • 1: Minimal lesions. […]

cMET kinase, sequence (P08581 25-1390): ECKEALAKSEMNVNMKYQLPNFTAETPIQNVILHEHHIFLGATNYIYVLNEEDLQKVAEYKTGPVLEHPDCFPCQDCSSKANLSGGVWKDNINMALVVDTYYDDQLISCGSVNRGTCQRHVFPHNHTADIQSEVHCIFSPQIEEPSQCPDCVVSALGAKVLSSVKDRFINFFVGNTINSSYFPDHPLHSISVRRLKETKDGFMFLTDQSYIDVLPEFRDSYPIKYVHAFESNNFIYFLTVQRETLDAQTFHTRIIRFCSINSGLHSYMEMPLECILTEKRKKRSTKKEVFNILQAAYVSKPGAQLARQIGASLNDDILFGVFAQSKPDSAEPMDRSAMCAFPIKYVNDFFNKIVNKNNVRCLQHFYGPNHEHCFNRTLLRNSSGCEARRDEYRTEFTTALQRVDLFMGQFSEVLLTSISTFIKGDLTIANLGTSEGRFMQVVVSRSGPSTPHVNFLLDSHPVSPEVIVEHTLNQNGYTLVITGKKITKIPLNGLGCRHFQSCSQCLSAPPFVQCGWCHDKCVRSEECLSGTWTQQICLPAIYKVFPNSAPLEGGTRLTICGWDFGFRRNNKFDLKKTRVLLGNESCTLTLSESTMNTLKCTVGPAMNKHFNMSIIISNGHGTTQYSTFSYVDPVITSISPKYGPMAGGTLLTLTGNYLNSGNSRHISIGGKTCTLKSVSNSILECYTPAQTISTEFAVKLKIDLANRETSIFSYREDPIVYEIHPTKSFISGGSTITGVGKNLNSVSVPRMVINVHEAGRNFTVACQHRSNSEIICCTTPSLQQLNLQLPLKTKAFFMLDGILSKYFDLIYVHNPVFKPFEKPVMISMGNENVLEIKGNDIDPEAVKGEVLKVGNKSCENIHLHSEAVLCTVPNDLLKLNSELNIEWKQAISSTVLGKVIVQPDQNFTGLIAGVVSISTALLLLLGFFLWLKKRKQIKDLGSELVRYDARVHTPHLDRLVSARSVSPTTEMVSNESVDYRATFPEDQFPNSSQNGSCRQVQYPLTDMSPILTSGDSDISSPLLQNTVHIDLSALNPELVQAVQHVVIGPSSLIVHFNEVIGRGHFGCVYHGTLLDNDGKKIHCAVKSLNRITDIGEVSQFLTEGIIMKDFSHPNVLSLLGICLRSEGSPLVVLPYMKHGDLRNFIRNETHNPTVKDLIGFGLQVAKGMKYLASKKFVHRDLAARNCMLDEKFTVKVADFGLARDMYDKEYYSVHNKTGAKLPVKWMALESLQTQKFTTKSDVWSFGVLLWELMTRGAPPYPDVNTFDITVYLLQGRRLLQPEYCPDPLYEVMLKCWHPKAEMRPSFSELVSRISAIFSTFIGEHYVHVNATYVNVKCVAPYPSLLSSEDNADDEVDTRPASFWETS
unphosphorylated PDGFRβ kinase (uPDGFRβ, Seq. ID No. 3), sequence (P09619 557-1106): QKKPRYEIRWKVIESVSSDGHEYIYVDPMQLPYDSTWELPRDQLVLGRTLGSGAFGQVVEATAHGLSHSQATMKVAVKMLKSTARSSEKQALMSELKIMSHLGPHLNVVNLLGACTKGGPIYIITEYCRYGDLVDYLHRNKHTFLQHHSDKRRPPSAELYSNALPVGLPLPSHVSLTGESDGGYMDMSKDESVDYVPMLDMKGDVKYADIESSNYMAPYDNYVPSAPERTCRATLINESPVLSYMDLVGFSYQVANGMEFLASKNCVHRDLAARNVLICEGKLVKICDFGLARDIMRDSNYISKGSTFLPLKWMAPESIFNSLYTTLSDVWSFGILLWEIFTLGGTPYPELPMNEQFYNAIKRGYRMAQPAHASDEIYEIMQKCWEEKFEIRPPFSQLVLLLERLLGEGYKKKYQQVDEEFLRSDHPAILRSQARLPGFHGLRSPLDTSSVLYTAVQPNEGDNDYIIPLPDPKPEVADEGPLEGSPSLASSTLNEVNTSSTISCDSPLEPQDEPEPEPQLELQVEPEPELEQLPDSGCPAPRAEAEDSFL
KDR kinase, sequence (P35968 20-1356): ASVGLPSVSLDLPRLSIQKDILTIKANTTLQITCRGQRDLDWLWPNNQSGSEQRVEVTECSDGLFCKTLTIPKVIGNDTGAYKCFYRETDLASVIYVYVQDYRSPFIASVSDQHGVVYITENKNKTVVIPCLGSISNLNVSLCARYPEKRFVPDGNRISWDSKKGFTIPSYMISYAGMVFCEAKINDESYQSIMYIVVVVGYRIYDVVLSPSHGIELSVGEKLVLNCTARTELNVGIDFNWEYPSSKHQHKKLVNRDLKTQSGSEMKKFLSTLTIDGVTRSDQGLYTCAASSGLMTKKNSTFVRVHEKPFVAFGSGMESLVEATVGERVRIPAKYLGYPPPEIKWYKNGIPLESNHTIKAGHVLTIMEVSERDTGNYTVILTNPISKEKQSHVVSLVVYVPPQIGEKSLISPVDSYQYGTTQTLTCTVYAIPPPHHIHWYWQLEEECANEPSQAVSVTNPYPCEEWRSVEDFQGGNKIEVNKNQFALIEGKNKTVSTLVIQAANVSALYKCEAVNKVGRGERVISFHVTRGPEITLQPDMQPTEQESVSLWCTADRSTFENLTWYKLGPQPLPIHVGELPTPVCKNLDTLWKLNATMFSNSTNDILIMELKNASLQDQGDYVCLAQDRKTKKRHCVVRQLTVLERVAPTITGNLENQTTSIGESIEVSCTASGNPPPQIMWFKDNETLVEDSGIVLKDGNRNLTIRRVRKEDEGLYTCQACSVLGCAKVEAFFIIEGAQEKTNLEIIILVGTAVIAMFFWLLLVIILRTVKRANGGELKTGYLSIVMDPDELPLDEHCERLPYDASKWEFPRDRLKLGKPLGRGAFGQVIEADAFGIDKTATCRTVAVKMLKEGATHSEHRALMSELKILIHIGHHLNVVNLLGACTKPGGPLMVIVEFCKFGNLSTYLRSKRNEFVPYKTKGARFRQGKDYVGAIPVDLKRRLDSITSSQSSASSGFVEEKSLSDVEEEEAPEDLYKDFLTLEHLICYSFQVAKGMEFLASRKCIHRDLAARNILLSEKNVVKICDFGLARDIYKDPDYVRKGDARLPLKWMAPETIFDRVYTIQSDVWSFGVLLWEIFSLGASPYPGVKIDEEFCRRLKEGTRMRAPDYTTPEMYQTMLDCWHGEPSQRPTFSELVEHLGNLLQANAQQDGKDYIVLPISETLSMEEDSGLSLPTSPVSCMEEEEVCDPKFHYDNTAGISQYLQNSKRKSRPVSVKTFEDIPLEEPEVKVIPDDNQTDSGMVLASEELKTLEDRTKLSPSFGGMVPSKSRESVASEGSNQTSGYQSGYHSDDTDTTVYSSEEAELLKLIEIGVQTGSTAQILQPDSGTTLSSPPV

Structure (SMILES)	pIC50 [1]	pIC50 (cMET kinase)	pIC50 (KDR kinase)	inhibition of cFOS mRNA levels (c-FMS)	lesion score (PC-3 M-luc cells)
Cn1cc(-c2cc(Oc3ccc(NC(=O)N4CCN(C5CCOCC5)C4=O)nc3)ccn2)cn1 [Example 1, N-(5-((2-(1-methyl-1H-pyrazol-4-yl)pyridin-4-yl)oxy)pyridin-2-yl)-2-oxo-3-(tetrahydro-2H-pyran-4-yl)imidazolidine-1-carboxamide]	6.00 to 7.00	< 5.30	< 5.48		
COCCN1CCN(C(=O)Nc2ccc(Oc3ccnc(-c4cnn(C)c4)c3)c(C)n2)C1=O [Example 18, 3-(2-methoxyethyl)-N-(6-methyl-5-((2-(1-methyl-1H-pyrazol-4-yl)pyridin-4-yl)oxy)pyridin-2-yl)-2-oxoimidazolidine-1-carboxamide]	< 6.00	< 5.30	< 5.48	≥ 70%	
Cc1nc(NC(=O)N2CCN(C3CCCC3)C2=O)ccc1Oc1ccnc(-c2cnn(C)c2)c1 [Example 29, 3-cyclopentyl-N-(6-methyl-5-((2-(1-methyl-1H-pyrazol-4-yl)pyridin-4-yl)oxy)pyridin-2-yl)-2-oxoimidazolidine-1-carboxamide]	< 6.00	6.05	< 5.48		
Cc1nc(NC(=O)N2CCN(C)C2=O)ccc1Oc1ccnc(-c2cnn(C)c2)c1 [Example 41, 3-methyl-N-(6-methyl-5-((2-(1-methyl-1H-pyrazol-4-yl)pyridin-4-yl)oxy)pyridin-2-yl)-2-oxoimidazolidine-1-carboxamide]	< 6.00			≥ 70%	
CCN1CCN(C(=O)Nc2ccc(Oc3ccnc(-c4cnn(C)c4)c3)c(C)n2)C1=O [Example 42, 3-ethyl-N-(6-methyl-5-((2-(1-methyl-1H-pyrazol-4-yl)pyridin-4-yl)oxy)pyridin-2-yl)-2-oxoimidazolidine-1-carboxamide]	< 6.00	< 5.30	< 5.00	≥ 70%	2
CCN1CCN(C(=O)Nc2ccc(Oc3ccnc(-c4ccnc(C)c4)c3)c(C)n2)C1=O [Example 118, 3-ethyl-N-(6-methyl-5-((2′-methyl-[2,4′-bipyridin]-4-yl)oxy)pyridin-2-yl)-2-oxoimidazolidine-1-carboxamide]	< 6.00			≥ 70%	

Reference: patent US9133183B2, “Imidazolidinones and analogs exhibiting anti-cancer and anti-proliferative activities” (Deciphera Pharmaceuticals, LLC, priority 2013, dated 2015)
